Laboratory results as given in patent US6506772B1, “Substituted [1,2,4]triazolo[1,5a]pyridine derivatives with activity as adenosine receptor ligands” (Hoffmann-La Roche Inc., priority 2000, dated 2003).
Where two headings read alike, the source gives them in different places.

Tests used:
[1] = molecular target: T1, human adenosine A2A receptor (Homo sapiens, UniProt P29274); assay: Human adenosine A2A receptor [3H]-SCH-58261 binding assay
T1 construct: expressed in transfected cells; host or cells: CHO cells, Semliki Forest virus expression system; membrane preparation
T1 sequence (P29274 whole entry): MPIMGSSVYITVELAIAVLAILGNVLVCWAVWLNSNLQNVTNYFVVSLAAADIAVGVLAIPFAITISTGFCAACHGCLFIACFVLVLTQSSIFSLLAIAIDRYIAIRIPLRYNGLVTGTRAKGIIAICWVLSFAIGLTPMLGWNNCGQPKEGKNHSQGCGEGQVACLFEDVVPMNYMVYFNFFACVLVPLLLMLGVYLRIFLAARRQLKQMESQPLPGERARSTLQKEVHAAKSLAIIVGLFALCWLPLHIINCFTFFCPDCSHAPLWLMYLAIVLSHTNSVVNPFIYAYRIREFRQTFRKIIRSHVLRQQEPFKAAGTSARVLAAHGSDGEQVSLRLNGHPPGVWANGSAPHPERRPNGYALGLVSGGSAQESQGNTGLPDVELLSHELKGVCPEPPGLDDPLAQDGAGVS
Protocol: Human Adenosine A2A Receptor
The human adenosine A2A receptor was recombinantly expressed in chinese hamster ovary (CHO) cells using the semliki forest virus expression system. Cells were harvested, washed twice by centrifugation, homogenized and again washed by centrifugation. The final washed membrane pellet was suspended in a Tris (50 mM) buffer containing 120 mM NaCl, 5 mM KCl, 2 mM CaCl2 and 10 MM MgCl2 (pH 7.4) (buffer A). […] Compounds were tested at 10 concentrations from 10 μM-0.3 nM. All assays were conducted in duplicate and repeated at least two times. Assay plates were incubated for 1 hour at room temperature before centrifugation and then bound ligand determined using a Packard Topcount scintillation counter. IC50 values were calculated using a non-linear curve fitting program and Ki values calculated using the Cheng-Prussoff equation.

HA1 adenosine receptor = molecular target: T2, HA1 adenosine receptor (Homo sapiens, UniProt P30542); assay: Human adenosine A1 receptor affinity (Ki hA1); type: binding
T2 sequence (P30542 1-326): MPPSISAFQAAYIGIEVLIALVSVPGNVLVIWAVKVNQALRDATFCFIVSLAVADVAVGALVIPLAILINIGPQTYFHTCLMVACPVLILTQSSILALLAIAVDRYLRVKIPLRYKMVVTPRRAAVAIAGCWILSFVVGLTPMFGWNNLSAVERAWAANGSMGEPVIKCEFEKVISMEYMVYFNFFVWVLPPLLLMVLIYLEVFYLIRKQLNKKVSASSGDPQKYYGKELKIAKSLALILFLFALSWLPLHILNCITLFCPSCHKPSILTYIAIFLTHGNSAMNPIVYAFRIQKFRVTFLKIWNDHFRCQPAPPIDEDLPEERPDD

[2] = affinity to human adenosine A2A receptor, read-out: Ki HA2A
[3] = calculated ratio of the affinity to the HA1 receptor to the HA2a receptor
[4] = affinity to human adenosine A1 receptor
[5] = recombinant human A2A in CHO cell membranes, [3H]-SCH-58261, Cheng-Prussoff, read-out: Ki hA2A

SMILES | Ki [1, 2] | selectivity (A1/A2a) [1, 3] | Ki (HA1 adenosine receptor; [4]) | selectivity (A1/A2a) ([1]; ratio KiHA1 divided by KiHA2A) | Ki [1, 5] | Ki (HA1 adenosine receptor)
CC1CCCN1C(=O)c1cc(N)n2nc(-c3ccc(Cl)o3)nc2c1 (stereo not drawn) [Example 254, [5-Amino-2-(5-chloro-furan-2-yl)-[1,2,4]triazolo[1,5-a]pyridin-7-yl]-(2-methyl-pyrrolidin-1-yl)-methanone] | 11.2 nM | 44.8 | 503 nM | – | – | –
CC1CCC(C)N1C(=O)c1cc(N)n2nc(-c3ccc(Br)o3)nc2c1 (stereo not drawn) [Example 275, [5-Amino-2-(5-bromo-furan-2-yl)-[1,2,4]triazolo[1,5-a]pyridin-7-yl]-(2,5-dimethyl-pyrrolidin-1-yl)-methanone] | 5.4 nM | 38.7 | 209 nM | – | – | –
Nc1cc(C(=O)N2CCCCC2)cc2nc(-c3ccccc3O)nn12 [Example 102, [5-Amino-2-(2-hydroxy-phenyl)-[1,2,4]triazolo[1,5-a]pyridin-7-yl]-piperidin-1-yl-methanone] | 57.6 nM | 17.0 | 978 nM | – | – | –
Nc1cc(C(=O)NC2CCc3ccccc32)cc2nc(-c3ccoc3)nn12 (stereo not drawn) [Example 223, 5-Amino-2-furan-3-yl-[1,2,4]triazolo[1,5-a]pyridine-7-carboxylic acid indan-1-ylamide] | 44.1 nM | 9.4 | 414 nM | – | – | –
COc1ccc(-c2nc3cc(C(=O)NCc4ccccc4Br)cc(N)n3n2)s1 [Example 52, 5-Amino-2-(5-methoxy-thiophen-2-yl)-[1,2,4]triazolo[1,5-a]pyridine-7-carboxylic acid 2-bromo-benzylamide] | 108 nM | 0.8 | 85.7 nM | – | – | –
CC(NC(=O)c1cc(N)n2nc(-c3ccoc3)nc2c1)c1ccccc1 (stereo not drawn) [Example 225, 5-Amino-2-furan-3-yl-[1,2,4]triazolo[1,5-a]pyridine-7-carboxylic acid (1-phenyl-ethyl)-amide] | 103 nM | 1.2 | 125 nM | – | – | –
CC(=O)N(C)C1CCN(C(=O)c2cc(N)n3nc(-c4ccc(Br)o4)nc3c2)C1 (stereo not drawn) [Example 392, N-{1-[5-Amino-2-(5-bromo-furan-2-yl)-[1,2,4]triazolo[1,5-a]pyridine-7-carbonyl]-pyrrolidin-3-yl}-N-methyl-acetamide] | – | – | – | 51.2 | 34.7 nM | 1780 nM
CC1CC(C)CN(C(=O)c2cc(N)n3nc(-c4ccc(Br)o4)nc3c2)C1 (stereo not drawn) [Example 341, [5-Amino-2-(5-bromo-furan-2-yl)-[1,2,4]triazolo[1,5-a]pyridin-7-yl]-(3,5-dimethyl-piperidin-1-yl)-methanone] | 1.7 nM | 70.3 | 120 nM | – | – | –
COC[C@H]1CCCN1C(=O)c1cc(N)n2nc(-c3nccs3)nc2c1 [Example 401, (5-Amino-2-thiazol-2-yl-[1,2,4]triazolo[1,5-a]pyridin-7-yl)-(R-2-methoxymethyl-pyrrolidin-1-yl)-methanone] | – | – | – | 66.4 | 51.9 nM | 3440 nM
Nc1cc(C(=O)N2CCCCC2c2cccnc2)cc2nc(-c3ccc(Br)o3)nn12 (stereo not drawn) [Example 354, [5-Amino-2-(5-bromo-furan-2-yl)-[1,2,4]triazolo[1,5-a]pyridin-7-yl]-(3,4,5,6-tetrahydro-2H-[2,3′]bipyridinyl-1-yl)-methanone] | 2.9 nM | 15.7 | 45.5 nM | – | – | –
COC[C@@H]1CCCN1C(=O)c1cc(N)n2nc(-c3nccs3)nc2c1 [Example 400, (5-Amino-2-thiazol-2-yl-[1,2,4]triazolo[1,5-a]pyridin-7-yl)-(S-2-methoxymethyl-pyrrolidin-1-yl)-methanone] | – | – | – | 53.3 | 83.7 nM | 4460 nM
COc1ccc(-c2nc3cc(C(=O)N4CCCCC4)cc(N)n3n2)s1 [Example 66, [5-Amino-2-(5-methoxy-thiophen-2-yl)-[1,2,4]triazolo[1,5-a]pyridin-7-yl]-piperidin-1-yl-methanone] | 174 nM | 3.6 | 623 nM | – | – | –

Other lines, results leading:

Ki [1, 2] | selectivity (A1/A2a) [1, 3] | Ki (HA1 adenosine receptor; [4]) | selectivity (A1/A2a) ([1]; ratio KiHA1 divided by KiHA2A) | Ki [1, 5] | Ki (HA1 adenosine receptor) | SMILES
130 nM | 11.6 | 1500 nM | – | – | – | Nc1cc(C(=O)NCc2ccccc2Cl)cc2nc(-c3ccc[nH]3)nn12 [Example 83, 5-Amino-2-(1H-pyrrol-2-yl)-[1,2,4]triazolo[1,5-a]pyridine-7-carboxylic acid 2-chloro-benzylamide]
54.4 nM | 4.3 | 232 nM | – | – | – | CC(NC(=O)c1cc(N)n2nc(-c3nccs3)nc2c1)c1ccccc1 (stereo not drawn) [Example 126, 5-Amino-2-thiazol-2-yl-[1,2,4]triazolo[1,5-a]pyridine-7-carboxylic acid (1-phenyl-ethyl)-amide]
23.8 nM | 4.6 | 109 nM | – | – | – | Nc1cc(C(=O)NCc2ccccc2Br)cc2nc(-c3ccccn3)nn12 [Example 38, 5-Amino-2-pyridin-2-yl-[1,2,4]triazolo[1,5-a]pyridine-7-carboxylic acid 2-bromo-benzylamide]
178 nM | 0.5 | 90.3 nM | – | – | – | Cc1ccc(-c2nc3cc(C(=O)NCc4ccccc4)cc(N)n3n2)s1 [Example 197, 5-Amino-2-(5-methyl-thiophen-2-yl)-[1,2,4]triazolo[1,5-a]pyridine-7-carboxylic acid benzylamide]
– | – | – | 23.2 | 43.3 nM | 1000 nM | CC(C)CN(CC(C)C)C(=O)c1cc(N)n2nc(-c3nccs3)nc2c1 [Example 405, 5-Amino-2-thiazol-2-yl-[1,2,4]triazolo[1,5-a]pyridine-7-carboxylic acid diisobutylamide]
31.1 nM | 4.0 | 125 nM | – | – | – | Nc1cc(C(=O)NCc2ccccc2Cl)cc2nc(-c3cccs3)nn12 [Example 163, 5-Amino-2-thiophen-2-yl-[1,2,4]triazolo[1,5-a]pyridine-7-carboxylic acid 2-chloro-benzylamide]
– | – | – | 10.8 | 63.6 nM | 689 nM | CCC1CCC(C)N(C(=O)c2cc(N)n3nc(-c4ccccn4)nc3c2)C1 (stereo not drawn) [Example 430, (5-Amino-2-pyridin-2-yl-[1,2,4]triazolo[1,5-a]pyridin-7-yl)-(5-ethyl-2-methyl-piperidin-1-yl)-methanone]
240 nM | 5.2 | 1260 nM | – | – | – | COc1ccccc1CNC(=O)c1cc(N)n2nc(-c3cccnc3)nc2c1 [Example 87, 5-Amino-2-pyridin-3-yl-[1,2,4]triazolo[1,5-a]pyridine-7-carboxylic acid 2-methoxy-benzylamide]
– | – | – | 26.5 | 69.1 nM | 1830 nM | C#CCN(C)C(=O)c1cc(N)n2nc(-c3ccccn3)nc2c1 [Example 407, 5-Amino-2-pyridin-2-yl-[1,2,4]triazolo[1,5-a]pyridine-7-carboxylic acid methyl-prop-2-ynyl-amide]
– | – | – | 25.4 | 119 nM | 3020 nM | CCCN(C)C(=O)c1cc(N)n2nc(-c3ccccn3)nc2c1 [Example 412, 5-Amino-2-pyridin-2-yl-[1,2,4]triazolo[1,5-a]pyridine-7-carboxylic acid methyl-propyl-amide]
2.6 nM | 14.7 | 37.7 nM | – | – | – | CCN(Cc1ccccc1)C(=O)c1cc(N)n2nc(-c3ccc(Cl)o3)nc2c1 [Example 261, 5-Amino-2-(5-chloro-furan-2-yl)-[1,2,4]triazolo[1,5-a]pyridine-7-carboxylic acid benzyl-ethyl-amide]
